Data from patent US20240382409A1, “COMPOSITION FOR ANTI-AGING AND SKIN IMPROVEMENT, COMPRISING COMPLEX OF INDIAN GOOSE-BERRY EXTRACT AND BARLEY SPROUT EXTRACT (lB COMPLEX) AS ACTIVE INGREDIENT” (HLSCIENCE CO., LTD, priority 2021, published 2024).
Converted amounts (≈) assume the structure as drawn.

Test: Anti-oxidation test: DPPH radical scavenging activity
Type: biochemical
Details: positive control
Experimental: In order to investigate the anti-oxidant effect using Examples 1 to 7 and Comparative examples 1 to 2, the DPPH (2,2-diphenyl-1-picryl hydrazyl) radical scavenging activity was evaluated.
The Examples 1 to 7 and Comparative examples 1 to 2 were mixed with 55 μM DPPH solution 450 μl by concentration and then reacted at 4° C. for 30 minutes. After completing the reaction, each sample was placed in a 96-well plate and the absorbance of samples was measured at 520 nm using a micro-plate reader. Then, a sample untreated group was used as a control group, and the free radical scavenging activity (%) of the sample was calculated as Equation 1 below.
Then, as a positive control scavenging radicals, ascorbic acid was used, and the concentration of ascorbic acid when the free radical scavenging activity was 50% was shown as 1.63 μg/mL.
IC50 means the concentration of sample when the free radical scavenging activity of the treated sample is 50%. Table 5 above summarizes the free radical scavenging activity in 5 μg/mL of each sample. […] It could be confirmed that the DPPH radical scavenging activity of Example 5 was the most excellent among them.

## O=C1O[C@H]([C@@H](O)CO)C(O)=C1O [Ascorbic acid, ascorbic acid]
  IC50 (concentration when the free radical scavenging activity is 50%): 1.63 µg/mL (≈ 9.25 µM)
